Experimental data from ChEMBL document CHEMBL1201862, “PubChem BioAssay data set” (2004).
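In this assay, cells in 96-well plates receive the compound at five concentrations for 48 hours. Endpoints are linearly interpolated between the surrounding concentrations. GI50: concentration for 50% inhibition of growth.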 The source made the active and inactive calls. No stated cut-off is given here; in the data, active = GI50 up to about 1.1 µM and inactive = higher. Bridge positions count the residues as written; N and C are the ends. Square brackets hold non-standard residues; d marks the D form. Peptide text beside a SMILES is read from it. * marks the point of attachment. Cya = N[CH](CS(=O)(=O)O)C(=O)O; X49 = CC(C)CCCCCCCC(O)CC(=O)*; GABA = NCCCC(=O)O

How the values were obtained:
Assay in all cases: inhibition of tumour cell growth, NCI panel, 48 h
RXF 393 = tested on: RXF 393
DU-145 = tested on: DU-145
Hs-578T = tested on: Hs-578T
UO-31 = tested on: UO-31
SNB-75 = tested on: SNB-75
SW-620 = tested on: SW-620
OVCAR-4 = tested on: OVCAR-4
LOX IMVI = tested on: LOX IMVI
A549 = tested on: A549
SF-539 = tested on: SF-539
SK-MEL-2 = tested on: SK-MEL-2
IGROV-1 = tested on: IGROV-1
NCI-H460 = tested on: NCI-H460
T47D = tested on: T47D
COLO 205 = tested on: COLO 205
CAKI-1 = tested on: CAKI-1
HCT-116 = tested on: HCT-116
NCI/ADR-RES = tested on: NCI/ADR-RES
SN12C = tested on: SN12C
HL-60 = tested on: HL-60
K562 = tested on: K562
SK-MEL-28 = tested on: SK-MEL-28
HCC 2998 = tested on: HCC 2998
MDA-MB-231 = tested on: MDA-MB-231
OVCAR-5 = tested on: OVCAR-5
CCRF-CEM = tested on: CCRF-CEM
HT-29 = tested on: HT-29
786-0 = tested on: 786-0
TK-10 = tested on: TK-10
A498 = tested on: A498
BT-549 = tested on: BT-549
MDA-N = tested on: MDA-N
NCI-H226 = tested on: NCI-H226
HOP-62 = tested on: HOP-62
SK-MEL-5 = tested on: SK-MEL-5
MOLT-4 = tested on: MOLT-4
MCF7 = tested on: MCF7
ACHN = tested on: ACHN
SNB-19 = tested on: SNB-19
KM12 = tested on: KM12
UACC-62 = tested on: UACC-62
EKVX = tested on: EKVX
UACC-257 = tested on: UACC-257
OVCAR-3 = tested on: OVCAR-3
M14 = tested on: M14
NCI-H23 = tested on: NCI-H23
HOP-92 = tested on: HOP-92
RPMI-8226 = tested on: RPMI-8226
SR = tested on: SR
PC-3 = tested on: PC-3
U-251 = tested on: U-251
SF-295 = tested on: SF-295
MDA-MB-435 = tested on: MDA-MB-435
HCT-15 = tested on: HCT-15
OVCAR-8 = tested on: OVCAR-8
SK-OV-3 = tested on: SK-OV-3
Malme-3M = tested on: Malme-3M
NCI-H522 = tested on: NCI-H522

SMILES: O=C1Nc2ccc([N+](=O)[O-])cc2/C1=N/NC(=S)Nc1ccccc1
- GI50 (RXF 393): 11.6 µM (inactive)
- GI50 (DU-145): 11.8 µM (inactive)
- GI50 (Hs-578T): 35.7 µM (inactive)
- GI50 (UO-31): 4.79 µM (inactive)
- GI50 (SNB-75): 7.57 µM (inactive)
- GI50 (SW-620): 8.99 µM (inactive)
- GI50 (OVCAR-4): 7.23 µM (inactive)
- GI50 (LOX IMVI): 9.46 µM (inactive)
- GI50 (A549): 5.05 µM (inactive)
- GI50 (SF-539): 12 µM (inactive)
- GI50 (SK-MEL-2): 11.9 µM (inactive)
- GI50 (IGROV-1): 1.41 µM (inactive)
- GI50 (NCI-H460): 3.61 µM (inactive)
- GI50 (T47D): 4.71 µM (inactive)
- GI50 (COLO 205): 11.7 µM (inactive)
- GI50 (CAKI-1): 3.53 µM (inactive)
- GI50 (HCT-116): 4.05 µM (inactive)
- GI50 (NCI/ADR-RES): 2.47 µM (inactive)
- GI50 (SN12C): 5.9 µM (inactive)
- GI50 (HL-60): 5.21 µM (inactive)
- GI50 (K562): 4.92 µM (inactive)
- GI50 (SK-MEL-28): 16.5 µM (inactive)
- GI50 (HCC 2998): 3.6 µM (inactive)
- GI50 (MDA-MB-231): 12.3 µM (inactive)
- GI50 (OVCAR-5): 12.2 µM (inactive)
- GI50 (CCRF-CEM): 2.16 µM (inactive)
- GI50 (HT-29): 5.37 µM (inactive)
- GI50 (786-0): 5.43 µM (inactive)
- GI50 (TK-10): 6.11 µM (inactive)
- GI50 (A498): 3.56 µM (inactive)
- GI50 (BT-549): 3.88 µM (inactive)
- GI50 (MDA-N): 6.35 µM (inactive)
- GI50 (NCI-H226): 18.5 µM (inactive)
- GI50 (HOP-62): 8.57 µM (inactive)
- GI50 (SK-MEL-5): 2.9 µM (inactive)
- GI50 (MOLT-4): 5.98 µM (inactive)
- GI50 (MCF7): 4.41 µM (inactive)
- GI50 (ACHN): 3.23 µM (inactive)
- GI50 (SNB-19): 5.35 µM (inactive)
- GI50 (KM12): 8.41 µM (inactive)
- GI50 (UACC-62): 11 µM (inactive)
- GI50 (EKVX): 1.21 µM (inactive)
- GI50 (UACC-257): 12.7 µM (inactive)
- GI50 (OVCAR-3): 10 µM (inactive)
- GI50 (M14): 6.01 µM (inactive)
- GI50 (NCI-H23): 9.33 µM (inactive)
- GI50 (HOP-92): 2.92 µM (inactive)
- GI50 (RPMI-8226): 15.5 µM (inactive)
- GI50 (SR): 5.26 µM (inactive)
- GI50 (PC-3): 5.5 µM (inactive)
- GI50 (U-251): 4.93 µM (inactive)
- GI50 (SF-295): 4.34 µM (inactive)
- GI50 (MDA-MB-435): 10.1 µM (inactive)
- GI50 (HCT-15): 3.03 µM
- GI50 (OVCAR-8): 5.16 µM (inactive)
- GI50 (SK-OV-3): 14 µM (inactive)

SMILES: CC(C)CCCCCCCC(O)CC(=O)NC(CS(=O)(=O)O)C(=O)NC(CC(C)C)C(=O)NCCCC(=O)NC(Cc1c[nH]cn1)C(=O)NC(C)C(=O)NC1C(=O)NC(C(C)O)C(=O)NC(Cc2c[nH]cn2)C(=O)NC(C)C(=O)NC(C(C)O)C(=O)OC1C (stereo not drawn) (X49-[Cya]L[GABA]HATTHAT; ester 6-C; configuration not given here)
- GI50 (DU-145): > 25 µM (inactive)
- GI50 (Hs-578T): > 25 µM (inactive)
- GI50 (UO-31): > 25 µM (inactive)
- GI50 (SNB-75): > 25 µM (inactive)
- GI50 (SW-620): > 25 µM (inactive)
- GI50 (OVCAR-4): > 25 µM (inactive)
- GI50 (LOX IMVI): > 25 µM (inactive)
- GI50 (A549): > 25 µM (inactive)
- GI50 (SF-539): > 25 µM (inactive)
- GI50 (SK-MEL-2): > 25 µM (inactive)
- GI50 (IGROV-1): > 25 µM (inactive)
- GI50 (NCI-H460): > 25 µM (inactive)
- GI50 (T47D): > 25 µM (inactive)
- GI50 (COLO 205): > 25 µM (inactive)
- GI50 (CAKI-1): > 25 µM (inactive)
- GI50 (HCT-116): > 25 µM (inactive)
- GI50 (NCI/ADR-RES): > 25 µM (inactive)
- GI50 (Malme-3M): > 25 µM (inactive)
- GI50 (SN12C): > 25 µM (inactive)
- GI50 (HL-60): > 25 µM (inactive)
- GI50 (K562): > 25 µM (inactive)
- GI50 (SK-MEL-28): > 25 µM (inactive)
- GI50 (HCC 2998): > 25 µM (inactive)
- GI50 (MDA-MB-231): > 25 µM (inactive)
- GI50 (OVCAR-5): > 25 µM (inactive)
- GI50 (CCRF-CEM): > 25 µM (inactive)
- GI50 (HT-29): > 25 µM (inactive)
- GI50 (786-0): > 25 µM (inactive)
- GI50 (TK-10): > 25 µM (inactive)
- GI50 (A498): > 25 µM (inactive)
- GI50 (BT-549): > 25 µM (inactive)
- GI50 (MDA-N): > 25 µM (inactive)
- GI50 (NCI-H226): > 25 µM (inactive)
- GI50 (HOP-62): > 25 µM (inactive)
- GI50 (SK-MEL-5): > 25 µM (inactive)
- GI50 (MOLT-4): > 25 µM (inactive)
- GI50 (MCF7): > 25 µM (inactive)
- GI50 (ACHN): > 25 µM (inactive)
- GI50 (SNB-19): > 25 µM (inactive)
- GI50 (KM12): > 25 µM (inactive)
- GI50 (UACC-62): > 25 µM (inactive)
- GI50 (EKVX): > 25 µM (inactive)
- GI50 (UACC-257): > 25 µM (inactive)
- GI50 (OVCAR-3): > 25 µM (inactive)
- GI50 (M14): > 25 µM (inactive)
- GI50 (NCI-H23): > 25 µM (inactive)
- GI50 (HOP-92): > 25 µM (inactive)
- GI50 (RPMI-8226): > 25 µM (inactive)
- GI50 (SR): 17.5 µM (inactive)
- GI50 (PC-3): > 25 µM (inactive)
- GI50 (U-251): > 25 µM (inactive)
- GI50 (SF-295): > 25 µM (inactive)
- GI50 (MDA-MB-435): > 25 µM (inactive)
- GI50 (NCI-H522): > 25 µM (inactive)
- GI50 (HCT-15): > 25 µM
- GI50 (OVCAR-8): > 25 µM (inactive)
- GI50 (SK-OV-3): > 25 µM (inactive)
